What was measured:
IL-6 = IL-6 release from Epiderm artificial skin, ELISA of culture media; assay type: cell-based, human
Text: (§1) When urushiol is applied to human skin it can elicit the synthesis and release of several key inflammatory cytokines, including IL-1α, IL-1β, IL-6, and IL-8. Release of these cytokines also has been noted in cultured keratinocyte models after the application of urushiol. IL-1α and IL-6 are synthesized and stored in keratinocytes and have been identified as mediators of skin irritation and inflammation. Release of these two cytokines can be measured directly in tissue culture media by a calorimetric enzyme linked immunosorbent assay (ELISA). In such measurements, antibodies covalently linked to a solid support will bind any IL-1α or IL-6 present in spent culture media samples. A second antibody that is covalently attached to an acetylcholinesterase enzyme will in turn detect the bound cytokines. Upon addition of an appropriate color substrate the acetylcholinesterase enzyme will in turn detect the bound cytokines. Upon addition of an appropriate color substrate the acetylcholinesterase enzyme will generate a colored end product that can be measured spectrophotometrically.
Testing of the invention herein was conducted using an artificial skin product designed for toxicity testing and sold under the name Epiderm® by Mat Tek Corporation of Ashland, Massachusetts. This artificial skin product consists of normal human-derived epidermal keratinocytes that have been cultured to form a multilayered, highly differentiated model of the human epidermis. […] Markers of mature epidermis specific differentiation such as profilaggrin, the K1/K10 cytokeratin pair, involucrin, and type I epidermal transglutaminase have been localized in this product. The product is also mitotically and metabolically active.
The Epidermic tissue samples were stored at 2-8° C. until used. The analyses were conducted with an ELISA test kit from Cayman Chemicals of Ann Arbor, Michigan, with all buffers and reagents being prepared according to the kit's instructions and allowed to come to room temperature. Prior to use, the tissues were removed from the agarose shipping tray and placed into a 6-well plate containing 1.0 ml of assay medium from the test kit, at 37±2° C. The tissues were allowed to incubate for one hour at 37±2° C. and 5±1% CO2. After this initial incubation, the assay medium was replaced with 1 ml of fresh medium at 37±2° C. […] The collected culture media were stored at −75±5° C. until analyzed for IL-1α and IL-6 levels. The IL-1α and IL-6 levels were determined by comparison with a standard curve generated from samples having known concentrations of these two cytokines. […] Absorbance values for the test materials and untreated samples were then used to estimate the amount of cytokine present in each sample.

IL-1α = IL-1α release from Epiderm artificial skin, ELISA of culture media; assay type: cell-based, human
Text: as §1, with “A second antibody that is covalently attached to an acetylcholinesterase enzyme will in turn detect the bound cytokines. Upon addition of an appropriate color substrate the acetylcholinesterase enzyme will in turn detect the bound cytokines.” left out, “spectrophotometrically. […]” for “spectrophotometrically.”
The Epidermic tissue samples were stored at 2-8° C. until used. […] The collected culture media were stored at −75±5° C. until analyzed for IL-1α and IL-6 levels. The IL-1α and IL-6 levels were determined by comparison with a standard curve generated from samples having known concentrations of these two cytokines. […] Absorbance values for the test materials and untreated samples were then used to estimate the amount of cytokine present in each sample.

[1] = test system: Epiderm normal human-derived epidermal keratinocytes; experiment: MTT assay of tissue viability of Epiderm artificial skin; assay type: cell-based; details: after the 48-hour time period; untreated tissues = 100%; same test materials
Description: The efficacy of nonylphenol ethoxylate on urushiol-induced dermatitis was evaluated by ELISA and MTT techniques. The MTT evaluation was based on a technique first described in Mosmann, T., “Rapid calorimetric assay for cellular growth and survival: application to proliferation and cytotoxicity assays,” J. Immunol. Methods, Dec. 16, 1983, 65(1-2):55-63. The analysis is based on the compound [3-(4,5-dimethylthiazol-2-yl)-2,5-diphenyltetrazolium bromide], commonly referred to as MTT. As reported by Mosmann, mitochondrial dehydrogenase enzyme from viable cells can cleave the tetrazolium rings of the pale yellow MTT and form dark blue formazin crystals. The crystals cannot permeate cell membranes, and thus tend to accumulate within healthy cells. […] The formazin is extracted with isopropanol and measured spectrophotometrically. […]
Epidermal irritation often is associated with a loss of viable ketinocytes. Therefore, changes in tissue viability after exposure to urushiol and the test were assessed using the MTT assay described above. […] After the extraction, a 200 μl sample from each well of the isopropanol/MTT mixture was transferred to a 96-well plate and the absorbance of the sample was read at 540 nm with a plate reader using 200 μl of isopropanol as the blank.
The mean MTT absorbance value for the untreated tissues was calculated and used to represent 100% tissue viability. […]

[2] = exposed to 50 micrograms of purified urushiol; cited from earlier work
[3] = 4 Hours, Epiderm tissue, 100 μl test material, Urushiol = control lotion 0.05% 2-deoxy-urushiol, Nonylphenol Ethoxylate = control lotion + 0.2% w/v nonyl phenyl ethoxylate

CCCCCCCCCCCCCCCc1cccc(O)c1O [Urushiol]
IL-6 Accumulation in Cell Culture Media (IL-6; [3]): 1.9 ± 0.4 pg/mL
IL-6 Accumulation in Cell Culture Media (IL-6; 12 Hours, same test materials): 5.1 ± 0.4 pg/mL
IL-6 Accumulation in Cell Culture Media (IL-6; 24 Hours, same test materials): 9.4 ± 0.3 pg/mL
IL-6 Accumulation in Cell Culture Media (IL-6; 48 Hours, same test materials): 16.4 ± 1.4 pg/mL
IL-1α Accumulation in Cell Culture Media (IL-1α; [3]): 16.1 ± 5.2 pg/mL
IL-1α Accumulation in Cell Culture Media (IL-1α; 12 Hours, same test materials): 32.6 ± 6.3 pg/mL
Percent Viability (MTT Assay) [1]: 88 ± 5%
adult Americans who get a rash [2]: 80-90%

Reference: US20060275333A1, “Composition with beads for treatment of contact dermatitis” (Humco Holding Group, Inc., priority 2005, published 2006)
